Values of other authors in US10300299B2, “Advanced methods and systems for treating cell proliferation disorders” (priority 2008, dated 2019).
Blank lines part the entries; values can stand above or below the compound they belong to.

Columns and labels:
rapidly dividing tissue = details: in vivo
[1] = not given; remark: listed apart in the source
[2] = not given; remark: listed apart in the source

duration of skin photosensitivity: approximately 2 weeks
Compound: Oc1cccc(-c2c3nc(c(-c4cccc(O)c4)c4ccc([nH]4)c(-c4cccc(O)c4)c4nc(c(-c5cccc(O)c5)c5ccc2[nH]5)CC4)C=C3)c1 [Foscan, Tetra (m-hydroxyphenyl) chlorin]
Length of photosensitization (Table 3, known photosensitizers): 2 weeks

uptake in rapidly dividing tissue (rapidly dividing tissue): increased uptake
Compound: C/C1=C2/[N-][C@H]([C@H](CC(N)=O)[C@@]2(C)CCC(=O)NC[C@@H](C)OP(=O)([O-])O[C@H]2[C@@H](O)[C@@H](n3cnc4cc(C)c(C)cc43)O[C@@H]2CO)[C@]2(C)N=C(/C(C)=C3N=C(/C=C4N=C1[C@@H](CCC(N)=O)C\4(C)C)[C@@H](CCC(N)=O)[C@]\3(C)CC(N)=O)[C@@H](CCC(N)=O)[C@]2(C)CC(N)=O.[CH3-].[Co+3] [methylcobalamin]

Compound: Cobalt-57-cyanocobalamin
uptake in rapidly dividing tissue (rapidly dividing tissue): increased uptake

excretion ([1]; in excess): excreted by gloinerular filtration
water solubility [2]: water soluble
Compound: Vitamin B12
toxicity ([1]; in vivo): no known toxicity
